According to US20260250325A1, “Antiviral Polypeptide Membrane Fusion Inhibitor, and Preparation Method and Application Thereof” (priority 2025, published 2026):
Where a SMILES comes first, the peptide text is derived from it. The star is where a group is joined. Succinyl(4-O-cholesteryl) = CC(C)CCC[C@@H](C)[C@H]1CC[C@H]2[C@@H]3CC=C4C[C@@H](OC(=O)CCC(=O)*)CC[C@]4(C)[C@H]3CC[C@]12C

Assays:
hPIV-N51 (139-189) = target: T1, hPIV-N51 (139-189) (Human parainfluenza 3 virus, UniProt P06828); assay: SPR affinity to hPIV-N51 coupled on CM5 chip; format: binding
T1 construct: hPIV-N51 (139-189)
T1 sequence (P06828 139-189): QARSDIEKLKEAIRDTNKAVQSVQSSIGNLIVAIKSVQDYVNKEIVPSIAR

hMPV-N46 (127-172) = target: T2, hMPV-N46 (127-172) (Human metapneumovirus, UniProt Q6WB98); assay: SPR affinity to hMPV-N46 coupled on CM5 chip; format: binding
T2 construct: hMPV-N46 (127-172)
T2 sequence (Q6WB98 127-172): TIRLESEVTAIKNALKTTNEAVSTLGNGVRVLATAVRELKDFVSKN

hPIV3 C243 virus strain = format: cell-based, hPIV; details: LLC-MK2 cells, hPIV3 C243, plaque reduction; read-out: EC50 against hPIV3 virus
Summary of the method: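 LLC-MK2 cells (40,000/well) infected with about 200 PFU of virus preincubated 1 h with the sample, then overlaid with 0.8% CMC medium containing the sample (0.5% DMSO) for 1 day at 37 °C. Plaques immunostained with TrueBlue and counted; 8 concentrations in duplicate, EC50 from a four-parameter fit.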

CC[C@H](C)[C@H](NC(=O)[C@H](CO)NC(=O)[C@H](C)NC(=O)[C@H](CC(=O)O)NC(=O)[C@H](Cc1ccccc1)NC(C)=O)C(=O)N[C@@H](CCC(=O)O)C(=O)N[C@@H](CCC(=O)O)C(=O)N[C@H](C(=O)N[C@@H](CC(N)=O)C(=O)N[C@@H](CCCNC(=N)N)C(=O)N[C@@H](CCCNC(=N)N)C(=O)N[C@H](C(=O)N[C@@H](CCC(=O)O)C(=O)N[C@@H](CCC(=O)O)C(=O)N[C@@H](CO)C(=O)N[C@@H](CC(C)C)C(=O)N[C@@H](CCCNC(=N)N)C(=O)N[C@@H](CCCNC(=N)N)C(=O)N[C@H](C(=O)N[C@@H](CCC(=O)O)C(=O)N[C@@H](CCC(=O)O)C(=O)N[C@@H](CO)C(=O)N[C@@H](CC(=O)O)C(=O)N[C@@H](CCCNC(=N)N)C(=O)N[C@@H](CCCNC(=N)N)C(=O)N[C@@H](CC(C)C)C(=O)N[C@@H](CCC(=O)O)C(=O)N[C@@H](CCC(=O)O)C(=O)N[C@H](C(=O)N[C@@H](CC(N)=O)C(=O)N[C@@H](C)C(=O)N[C@@H](CCC(=O)O)C(=O)N[C@@H](C)C(=O)N[C@@H](C)C(=O)N[C@@H](C)C(=O)N[C@@H](CCCCN)C(=O)N[C@@H](CCCCNC(=O)CCC(=O)O[C@H]1CC[C@@]2(C)C(=CC[C@H]3[C@@H]4CC[C@H]([C@H](C)CCCC(C)C)[C@@]4(C)CC[C@@H]32)C1)C(N)=O)C(C)C)[C@@H](C)CC)[C@@H](C)CC)C(C)C [Compound 42] (Ac-FDASIEEVNRRIEESLRRIEESDRRLEEVNAEAAAKK(Succinyl(4-O-cholesteryl))-NH2) showed a Kd (hPIV-N51 (139-189)) of 485 nM, a Kd (hMPV-N46 (127-172)) of 533 nM and an EC50 (hPIV3 C243 virus strain) of 18.9 nM.

CC[C@H](C)[C@H](NC(=O)[C@H](CO)NC(=O)[C@H](C)NC(=O)[C@H](CC(=O)O)NC(=O)[C@H](Cc1ccccc1)NC(=O)[C@H](CCC(=O)O)NC(=O)[C@H](CC(=O)O)NC(=O)[C@H](Cc1c[nH]c2ccccc12)NC(C)=O)C(=O)N[C@@H](CCC(=O)O)C(=O)N[C@@H](CCC(=O)O)C(=O)N[C@H](C(=O)N[C@@H](CC(N)=O)C(=O)N[C@@H](CCCNC(=N)N)C(=O)N[C@@H](CCCNC(=N)N)C(=O)N[C@H](C(=O)N[C@@H](CCC(=O)O)C(=O)N[C@@H](CCC(=O)O)C(=O)N[C@@H](CO)C(=O)N[C@@H](CC(C)C)C(=O)N[C@@H](CCCNC(=N)N)C(=O)N[C@@H](CCCNC(=N)N)C(=O)N[C@H](C(=O)N[C@@H](CCC(=O)O)C(=O)N[C@@H](CCC(=O)O)C(=O)N[C@@H](CO)C(=O)N[C@@H](CC(=O)O)C(=O)N[C@@H](CCCNC(=N)N)C(=O)N[C@@H](CCCNC(=N)N)C(=O)N[C@@H](CC(C)C)C(=O)N[C@@H](CCC(=O)O)C(=O)N[C@@H](CCC(=O)O)C(=O)N[C@H](C(=O)N[C@@H](CCC(=O)O)C(=O)N[C@@H](C)C(=O)N[C@@H](C)C(=O)N[C@@H](C)C(=O)N[C@@H](CCCCN)C(=O)N[C@@H](CCCCNC(=O)CCC(=O)O[C@H]1CC[C@@]2(C)C(=CC[C@H]3[C@@H]4CC[C@H]([C@H](C)CCCC(C)C)[C@@]4(C)CC[C@@H]32)C1)C(N)=O)C(C)C)[C@@H](C)CC)[C@@H](C)CC)C(C)C [Compound 43] (Ac-WDEFDASIEEVNRRIEESLRRIEESDRRLEEVEAAAKK(Succinyl(4-O-cholesteryl))-NH2) gave a Kd (hPIV-N51 (139-189)) of 5720 nM, a Kd (hMPV-N46 (127-172)) of 71400 nM and an EC50 (hPIV3 C243 virus strain) of 16.1 nM.
